In ChEMBL document CHEMBL1142171, “Identification and structural characterization of I84C and I84A mutations that are associated with high-level resistance to human immunodeficiency virus protease inhibitors and impair viral replication” (2007):

How the values were obtained:
Format in all cases: functional, HEK293
[1] = system: Human immunodeficiency virus 1; assay: Antiviral activity against HIV1 C5 isolate with protease I84C mutation in HEK 293 cells relative to wild type
[2] = system: Human immunodeficiency virus 1; assay: Resistance to HIV1 with protease 46I, 54M/V and I84A mutation in HEK 293 relative to similar background
[3] = system: Human immunodeficiency virus 1; assay: Antiviral activity against HIV1 A6 isolate with protease I84A mutation in HEK 293 cells relative to wild type
[4] = system: Human immunodeficiency virus 1; assay: Antiviral activity against HIV1 C3 isolate with protease I84C mutation in HEK 293 cells relative to wild type
[5] = system: Human immunodeficiency virus 1; assay: Resistance to HIV1 with protease 46I, 54V and I84V mutation in HEK 293 cells relative to similar background
[6] = system: Human immunodeficiency virus 1; assay: Antiviral activity against HIV1 A13 isolate with protease I84A mutation in HEK 293 cells relative to wild type
[7] = system: Human immunodeficiency virus 1; assay: Antiviral activity against HIV1 A12 isolate with protease I84A mutation in HEK 293 cells relative to wild type
[8] = system: Human immunodeficiency virus 1; assay: Antiviral activity against HIV1 A7 isolate with protease I84A mutation in HEK 293 cells relative to wild type
[9] = system: Human immunodeficiency virus 1; assay: Antiviral activity against HIV1 C8 isolate with protease I84C mutation in HEK 293 cells relative to wild type
[10] = system: Human immunodeficiency virus 1; assay: Antiviral activity against HIV1 C10 isolate with protease I84C mutation in HEK 293 cells relative to wild type
[11] = system: Human immunodeficiency virus 1; assay: Resistance to HIV1 with protease 46I, 54I and I84V mutation in HEK 293 cells relative to similar background
[12] = system: Human immunodeficiency virus 1; assay: Resistance to HIV1 with protease 46I/L, 54I and I84C mutation in HEK 293 cells relative to similar background
[13] = system: Human immunodeficiency virus 1; assay: Antiviral activity against HIV1 C4 isolate with protease I84C mutation in HEK 293 cells relative to wild type
[14] = system: Human immunodeficiency virus 1; assay: Antiviral activity against HIV1 A9 isolate with protease I84A mutation in HEK 293 cells relative to wild type
[15] = system: Human immunodeficiency virus 1; assay: Antiviral activity against HIV1 C1 isolate with protease I84C mutation in HEK 293 cells relative to wild type
[16] = system: Human immunodeficiency virus 1; assay: Antiviral activity against HIV1 A5 isolate with protease I84A mutation in HEK 293 cells relative to wild type
[17] = system: Human immunodeficiency virus 1; assay: Antiviral activity against HIV1 A4 isolate with protease I84A mutation in HEK 293 cells relative to wild type
[18] = system: Human immunodeficiency virus 1; assay: Resistance to HIV1 with protease 46M, 54I and I84C mutation in HEK 293 cells relative to similar background
[19] = system: Human immunodeficiency virus 1; assay: Antiviral activity against HIV1 A10 isolate with protease I84A mutation in HEK 293 cells relative to wild type
[20] = system: Human immunodeficiency virus 1; assay: Antiviral activity against HIV1 C6 isolate with protease I84C mutation in HEK 293 cells relative to wild type
[21] = system: Human immunodeficiency virus 1; assay: Antiviral activity against HIV1 A11 isolate with protease I84A mutation in HEK 293 cells relative to wild type
[22] = system: Human immunodeficiency virus 1; assay: Resistance to HIV1 with protease 46M, 54I and I84V mutation in HEK 293 cells relative to similar background
[23] = system: Human immunodeficiency virus 1; assay: Antiviral activity against HIV1 A15 isolate with protease I84A mutation in HEK 293 cells relative to wild type
[24] = system: Human immunodeficiency virus 1; assay: Antiviral activity against HIV1 A3 isolate with protease I84A mutation in HEK 293 cells relative to wild type
[25] = system: Human immunodeficiency virus 1; assay: Antiviral activity against HIV1 C2 isolate with protease I84C mutation in HEK 293 cells relative to wild type
[26] = system: Human immunodeficiency virus 1; assay: Antiviral activity against HIV1 C7 isolate with protease I84C mutation in HEK 293 cells relative to wild type
[27] = system: Human immunodeficiency virus 1; assay: Antiviral activity against HIV1 A14 isolate with protease I84A mutation in HEK 293 cells relative to wild type
[28] = system: Human immunodeficiency virus 1; assay: Antiviral activity against HIV1 A2 isolate with protease I84A mutation in HEK 293 cells relative to wild type
[29] = system: Human immunodeficiency virus 1; assay: Antiviral activity against HIV1 A8 isolate with protease I84A mutation in HEK 293 cells relative to wild type
[30] = system: Human immunodeficiency virus 1; assay: Resistance to HIV1 with protease 46I, 54I and I84A mutation in HEK 293 cells relative to similar background
[31] = system: Human immunodeficiency virus 1; assay: Antiviral activity against HIV1 A1 isolate with protease I84A mutation in HEK 293 cells relative to wild type
[32] = system: Human immunodeficiency virus 1; assay: Antiviral activity against HIV1 C9 isolate with protease I84C mutation in HEK 293 cells relative to wild type
[33] = system: Human immunodeficiency virus 1; assay: Antiviral activity against HIV1 C11 isolate with protease I84C mutation in HEK 293 cells relative to wild type

Work on `CC(C)(C)NC(=O)[C@@H]1C[C@@H]2CCCC[C@@H]2CN1C[C@@H](O)[C@H](Cc1ccccc1)NC(=O)[C@H](CC(N)=O)NC(=O)c1ccc2ccccc2n1` yielded a Fold change [1] of 41, a Fold change [2] greater than 1000 and a Fold change [3] of 24. For the same molecule, the Fold change [4] was 56, the Fold change [5] was 20 and the Fold change [6] was 1000. The Fold change [7] was 1000, the Fold change [8] was 1000 and the Fold change [9] was 68. The Fold change [10] was 242, the Fold change [11] was 4.3 and the Fold change [12] was 80. It also gave a Fold change [13] of 92, a Fold change [14] of 1000 and a Fold change [15] of 6.1. It also gave a Fold change [16] of 256, a Fold change [17] of 241 and a Fold change [18] of 56. For the same molecule, the Fold change [19] was 1000, the Fold change [20] was 24 and the Fold change [21] was 1000. The Fold change [22] was 4.3, the Fold change [23] was 1000 and the Fold change [24] was 365. The Fold change [25] was 14, the Fold change [26] was 1000 and the Fold change [27] was 69. For the same molecule, the Fold change [28] was 141, the Fold change [29] was 265.5 and the Fold change [30] was 261. For the same molecule, the Fold change [31] was 1000.

With `CC(C)CN(C[C@@H](O)[C@H](Cc1ccccc1)NC(=O)O[C@H]1CCOC1)S(=O)(=O)c1ccc(N)cc1` the Fold change [1] was 20, the Fold change [2] was 74 and the Fold change [3] was 21. It also gave a Fold change [4] of 8.6, a Fold change [5] of 36 and a Fold change [6] of 43. The Fold change [7] was 400, the Fold change [8] was 74 and the Fold change [9] was 12. The Fold change [10] was 53, the Fold change [11] was 9 and the Fold change [32] was 30. It also gave a Fold change [33] of 18, a Fold change [12] of 21 and a Fold change [13] of 10. It also gave a Fold change [14] of 33, a Fold change [15] of 1.7 and a Fold change [16] of 28. For the same molecule, the Fold change [17] was 32, the Fold change [18] was 8.6 and the Fold change [19] was 400. It also gave a Fold change [20] of 64, a Fold change [21] of 47 and a Fold change [22] of 4. It also gave a Fold change [23] of 30, a Fold change [24] of 43 and a Fold change [25] of 5.4. It also gave a Fold change [26] of 23, a Fold change [27] of 141 and a Fold change [28] of 31. The Fold change [29] was 252, the Fold change [30] was 33 and the Fold change [31] was 32.

In the case of `Cc1c(O)cccc1C(=O)N[C@@H](CSc1ccccc1)[C@H](O)CN1C[C@H]2CCCC[C@H]2C[C@H]1C(=O)NC(C)(C)C`, the Fold change [1] is reported as 51, the Fold change [2] is reported as greater than 600 and the Fold change [3] is reported as 64. It also gave a Fold change [4] of 74, a Fold change [5] of 16 and a Fold change [6] of 196. For the same molecule, the Fold change [7] was 600, the Fold change [8] was 600 and the Fold change [9] was 86. It also gave a Fold change [10] of 286, a Fold change [11] of 9 and a Fold change [32] of 70. The Fold change [33] was 91, the Fold change [12] was 115 and the Fold change [13] was 395. The Fold change [14] was 600, the Fold change [15] was 15 and the Fold change [16] was 600. The Fold change [17] was 600, the Fold change [18] was 74 and the Fold change [19] was 600. It also gave a Fold change [20] of 144, a Fold change [21] of 600 and a Fold change [22] of 4. For the same molecule, the Fold change [23] was 600, the Fold change [24] was 600 and the Fold change [25] was 59. It also gave a Fold change [26] of 600, a Fold change [27] of 210 and a Fold change [28] of 600. For the same molecule, the Fold change [29] was 600, the Fold change [30] was greater than 600 and the Fold change [31] was 600.

In the case of `COC(=O)N[C@H](C(=O)N[C@@H](Cc1ccccc1)[C@@H](O)CN(Cc1ccc(-c2ccccn2)cc1)NC(=O)[C@@H](NC(=O)OC)C(C)(C)C)C(C)(C)C` [ATAZANAVIR], the Fold change [6] is reported as 700, the Fold change [7] is reported as 25 and the Fold change [10] is reported as 19. For the same molecule, the Fold change [32] was 9.1, the Fold change [33] was 5 and the Fold change [14] was 52. For the same molecule, the Fold change [19] was 700, the Fold change [21] was 63 and the Fold change [23] was 253. For the same molecule, the Fold change [27] was 21 and the Fold change [31] was 38.

`Cc1cccc(C)c1OCC(=O)N[C@@H](Cc1ccccc1)[C@@H](O)C[C@H](Cc1ccccc1)NC(=O)[C@H](C(C)C)N1CCCNC1=O` [LOPINAVIR] gave a Fold change [1] of 3.1, a Fold change [2] of 75 and a Fold change [3] of 14. It also gave a Fold change [4] of 1.6, a Fold change [5] of 80 and a Fold change [6] of 50. The Fold change [7] was 210, the Fold change [8] was 124 and the Fold change [9] was 2.9. For the same molecule, the Fold change [10] was 5.1, the Fold change [11] was 8.9 and the Fold change [32] was 2.3. The Fold change [33] was 2.8, the Fold change [12] was 3.1 and the Fold change [13] was 3.1. For the same molecule, the Fold change [14] was 16, the Fold change [15] was 0.4 and the Fold change [16] was 9. It also gave a Fold change [17] of 14, a Fold change [18] of 2.2 and a Fold change [19] of 59. It also gave a Fold change [20] of 47, a Fold change [21] of 14 and a Fold change [22] of 2.8. It also gave a Fold change [23] of 75, a Fold change [24] of 11 and a Fold change [26] of 7.2. For the same molecule, the Fold change [27] was 104, the Fold change [29] was 94 and the Fold change [30] was 14. The Fold change [31] was 10.
